#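 Grown in 96-well plates, cells were treated for 48 hours with each compound at five concentrations. Insufficient inhibition: endpoint recorded as highest concentration tested. At the GI50, growth is halved. At the TGI there is no net growth.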
# Key:
# Assay in all cases: NCI-60 cell line screen, 48 h
# [1] = tested on: DU-145 prostate
# [2] = tested on: SW-620 colon
# [3] = tested on: HCC-2998 colon
# [4] = tested on: LOX IMVI melanoma
# [5] = tested on: KM12 colon
# [6] = tested on: T-47D breast
# [7] = tested on: CCRF-CEM leukemia
# [8] = tested on: SF-295 CNS
# [9] = tested on: HCT-116 colon
# [10] = tested on: TK-10 renal
# [11] = tested on: M14 melanoma
# [12] = tested on: SF-268 CNS
# [13] = tested on: NCI-H23 lung
# [14] = tested on: K-562 leukemia
# [15] = tested on: NCI-H522 lung
# [16] = tested on: U251 CNS
# [17] = tested on: A549 NSCLC
# [18] = tested on: HL-60(TB) leukemia
# [19] = tested on: MDA-MB-231 breast
# [20] = tested on: EKVX NSCLC
# [21] = tested on: 786-0 renal
# [22] = tested on: HT29 colon
# [23] = tested on: HOP-62 NSCLC
# [24] = tested on: A498 renal
# [25] = tested on: UACC-62 melanoma
# [26] = tested on: RPMI-8226 leukemia
# [27] = tested on: PC-3 prostate
# [28] = tested on: MALME-3M melanoma
# [29] = tested on: OVCAR-5 ovarian
# [30] = tested on: SN12C renal
# [31] = tested on: HCT-15 colon
# [32] = tested on: SK-OV-3 ovarian
# [33] = tested on: OVCAR-4 ovarian
# [34] = tested on: MDA-MB-435
# [35] = tested on: SK-MEL-5 melanoma
# [36] = tested on: COLO 205 colon
# [37] = tested on: NCI-H226 lung
# [38] = tested on: UO-31 renal
# [39] = tested on: CAKI-1 renal
# [40] = tested on: NCI/ADR-RES ovarian
# [41] = tested on: SK-MEL-28 melanoma
# [42] = tested on: IGROV1 ovarian
# [43] = tested on: MOLT-4 leukemia
# [44] = tested on: MCF7 breast
# [45] = tested on: NCI-H460 lung
# [46] = tested on: SNB-75 CNS
# [47] = tested on: OVCAR-3 ovarian
# [48] = tested on: SR leukemia
# [49] = tested on: SK-MEL-2 melanoma
# [50] = tested on: ACHN renal
# [51] = tested on: SF-539 CNS
# [52] = tested on: HOP-92 NSCLC
# [53] = tested on: SNB-19 CNS
# [54] = tested on: HS 578T breast
smiles,measurement,setting,value
CCOC(=O)c1cc2c(cc1Cl)SC(N(c1ccc(F)cc1)S(=O)(=O)c1ccc(OC)cc1)=NS2(=O)=O,GI50,[1],16.1 µM
same,TGI,[1],33.9 µM
same,GI50,[2],15.9 µM
same,TGI,[2],30.6 µM
same,GI50,[3],18.2 µM
same,TGI,[3],35.2 µM
same,GI50,[4],12.9 µM
same,TGI,[4],25.6 µM
same,GI50,[5],22.8 µM
same,TGI,[5],63.9 µM
same,GI50,[6],4.8 µM
same,TGI,[6],21.9 µM
same,GI50,[7],1.31 µM
same,TGI,[7],54.2 µM
same,GI50,[8],25.7 µM
same,TGI,[8],74.8 µM
same,GI50,[9],17.1 µM
same,TGI,[9],32 µM
same,GI50,[10],18.8 µM
same,TGI,[10],54.5 µM
same,GI50,[11],19.5 µM
same,TGI,[11],49.1 µM
same,GI50,[12],14.5 µM
same,TGI,[12],31.4 µM
same,GI50,[13],18.5 µM
same,TGI,[13],44 µM
same,GI50,[14],14.2 µM
same,TGI,[14],31.1 µM
same,GI50,[15],13.5 µM
same,TGI,[15],29.9 µM
same,GI50,[16],16.2 µM
same,TGI,[16],34.7 µM
same,GI50,[17],22 µM
same,TGI,[17],> 100 µM
same,GI50,[18],18.5 µM
same,TGI,[18],42.4 µM
same,GI50,[19],19.2 µM
same,TGI,[19],53.5 µM
same,GI50,[20],21.2 µM
same,TGI,[20],51.8 µM
same,GI50,[21],24.4 µM
same,TGI,[21],54.1 µM
same,GI50,[22],16.1 µM
same,TGI,[22],34.6 µM
same,GI50,[23],35.1 µM
same,TGI,[23],> 100 µM
same,GI50,[24],23 µM
same,TGI,[24],45.9 µM
same,GI50,[25],14.6 µM
same,TGI,[25],30.5 µM
same,GI50,[26],15 µM
same,TGI,[26],51.5 µM
same,GI50,[27],11.3 µM
same,TGI,[27],25.5 µM
same,GI50,[28],14.9 µM
same,TGI,[28],32.8 µM
same,GI50,[29],32.4 µM
same,TGI,[29],71 µM
same,GI50,[30],19.3 µM
same,TGI,[30],50 µM
same,GI50,[31],14.8 µM
same,TGI,[31],27.9 µM
same,GI50,[32],24.3 µM
same,TGI,[32],> 100 µM
same,GI50,[33],14.9 µM
same,TGI,[33],39.5 µM
same,GI50,[34],14.8 µM
same,TGI,[34],44.7 µM
same,GI50,[35],13.6 µM
same,TGI,[35],26.5 µM
same,GI50,[36],12.5 µM
same,TGI,[36],27.6 µM
same,GI50,[37],29.8 µM
same,TGI,[37],> 100 µM
same,GI50,[38],17.9 µM
same,TGI,[38],42.2 µM
same,GI50,[39],20.2 µM
same,TGI,[39],48.7 µM
same,GI50,[40],21.2 µM
same,TGI,[40],42.1 µM
same,GI50,[41],14.1 µM
same,TGI,[41],29 µM
same,GI50,[42],37.7 µM
same,TGI,[42],> 100 µM
same,GI50,[43],15.6 µM
same,TGI,[43],37.9 µM
same,GI50,[44],11.8 µM
same,TGI,[44],25.4 µM
same,GI50,[45],17 µM
same,TGI,[45],36.2 µM
same,GI50,[46],18.3 µM
same,TGI,[46],47.4 µM
same,GI50,[47],13.9 µM
same,TGI,[47],28.3 µM
same,GI50,[48],16.8 µM
same,TGI,[48],37.9 µM
same,GI50,[49],12.4 µM
same,TGI,[49],35.1 µM
same,GI50,[50],18.5 µM
same,TGI,[50],42.1 µM
same,GI50,[51],9.61 µM
same,TGI,[51],22.7 µM
same,GI50,[52],4.81 µM
same,TGI,[52],19.2 µM
same,GI50,[53],18.6 µM
same,TGI,[53],51.2 µM
same,GI50,[54],20.7 µM
same,TGI,[54],51.3 µM
